Test results from patent publication US20250002507A1, “7,8-DIHYDRO-5H-1,6-NAPHTHYRIDINE DERIVATIVES AS POSITIVE ALLOSTERIC MODULATORS OF THE MUSCARINIC ACETYLCHOLINE RECEPTOR M4 FOR TREATING NEUROLOGICAL AND PSYCHIATRIC DISORDERS” (Vanderbilt University, priority 2021, published 2025).

Target: T1, Human M4 (Homo sapiens, UniProt P08173)
T1 construct: expressed in transfected cells
T1 sequence (P08173 1-479): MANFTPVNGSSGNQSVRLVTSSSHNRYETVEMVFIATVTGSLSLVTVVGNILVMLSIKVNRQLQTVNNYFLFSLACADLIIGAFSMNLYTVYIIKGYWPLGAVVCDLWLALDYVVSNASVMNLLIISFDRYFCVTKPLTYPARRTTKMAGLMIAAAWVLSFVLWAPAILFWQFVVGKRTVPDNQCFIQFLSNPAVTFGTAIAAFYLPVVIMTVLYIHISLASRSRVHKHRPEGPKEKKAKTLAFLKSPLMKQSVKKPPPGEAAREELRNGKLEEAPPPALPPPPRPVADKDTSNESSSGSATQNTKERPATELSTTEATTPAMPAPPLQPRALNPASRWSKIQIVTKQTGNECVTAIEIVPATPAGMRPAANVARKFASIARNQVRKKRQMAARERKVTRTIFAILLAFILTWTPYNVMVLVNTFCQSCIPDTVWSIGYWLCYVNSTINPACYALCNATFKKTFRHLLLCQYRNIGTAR
Experiment: mAChR M4 cell-based functional assay (calcium flux, potentiation of EC20 acetylcholine response), hM4-Gqi5 CHO-K1 cells
Conditions: for Emax at 30 µM / Emax: CHO-K1; for Emax at 30 µM: % ACh maximum at 30 μM, human M4, read-out: Emax; for EC50: hM4-Gqi5 CHO-K1 cells, calcium flux, PAM of EC20 acetylcholine, read-out: Human M4 EC50
In short: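 CHO-K1 cells stably expressing human M4 with chimeric Gqi5, loaded with Fluo-4 AM 50 min at 37 °C; calcium flux read by FDSS. 11-point 1:3 compound curves added, then EC20 acetylcholine at 144 s; potentiation of the EC20 response fitted by four-parameter logistic to give EC50 and Emax.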

| Structure (SMILES) | Emax at 30 µM | EC50 | Emax |
| --- | --- | --- | --- |
| Cc1c(N2CCc3ncc(C(=O)N4CC(C)(C)C4)cc3C2)nn2cnnc2c1C [Compound 123, (3,3-dimethylazetidin-1-yl)-[6-(7,8-dimethyl-[1,2,4]triazolo[4,3-b]pyridazin-6-yl)-7,8-dihydro-5H-1,6-naphthyridin-3-yl]methanone] | 77% | 4770 nM |  |
| Cc1c(N2CCc3ncc(C(=O)NC(C)c4nccs4)cc3C2)nn2cnnc2c1C (stereo not shown) [Compound 124, 6-(7,8-dimethyl-[1,2,4]triazolo[4,3-b]pyridazin-6-yl)-N-(1-thiazol-2-ylethyl)-7,8-dihydro-5H-1,6-naphthyridine-3-carboxamide] | 63% | 3690 nM |  |
| Cc1c(N2CCc3ncc(C(=O)NCCN4CCCC4)cc3C2)nn2cnnc2c1C [Compound 125, 6-(7,8-dimethyl-[1,2,4]triazolo[4,3-b]pyridazin-6-yl)-N-(2-pyrrolidin-1-ylethyl)-7,8-dihydro-5H-1,6-naphthyridine-3-carboxamide] | 85% | 7200 nM |  |
| Cc1c(N2CCc3ncc(C(=O)N(C)Cc4ccco4)cc3C2)nn2cnnc2c1C [Compound 126, 6-(7,8-dimethyl-[1,2,4]triazolo[4,3-b]pyridazin-6-yl)-N-(2-furylmethyl)-N-methyl-7,8-dihydro-5H-1,6-naphthyridine-3-carboxamide] | 55% |  |  |
| Cc1c(N2CCc3ncc(C(F)(F)F)cc3C2)nn2cnnc2c1C [Compound 127, 6-(7,8-dimethyl-[1,2,4]triazolo[4,3-b]pyridazin-6-yl)-3-(trifluoromethyl)-7,8-dihydro-5H-1,6-naphthyridine] | 107% | 151 nM |  |
| Cc1ccc2c(n1)CCN(c1nn3cnnc3c(C)c1C)C2 [Compound 128, 6-(7,8-dimethyl-[1,2,4]triazolo[4,3-b]pyridazin-6-yl)-2-methyl-7,8-dihydro-5H-1,6-naphthyridine] |  | 380 nM | 103% |
| CCn1ccc(-c2cnc3c(c2)CN(c2nn4cnnc4c(C)c2C)CC3)n1 [Compound 129, 6-(7,8-dimethyl-[1,2,4]triazolo[4,3-b]pyridazin-6-yl)-3-(1-ethylpyrazol-3-yl)-7,8-dihydro-5H-1,6-naphthyridine] | 99% | 210 nM |  |
| CCn1ccc(-c2cnc3c(c2)CN(c2nn4cnnc4cc2C)CC3)n1 [Compound 130, 3-(1-ethylpyrazol-3-yl)-6-(7-methyl-[1,2,4]triazolo[4,3-b]pyridazin-6-yl)-7,8-dihydro-5H-1,6-naphthyridine] | 93% |  |  |
| CCn1ccc(-c2cnc3c(c2)CN(c2nn4ccnc4cc2C)CC3)n1 [Compound 131, 3-(1-ethylpyrazol-3-yl)-6-(7-methylimidazo[1,2-b]pyridazin-6-yl)-7,8-dihydro-5H-1,6-naphthyridine] | 81% | 921 nM |  |
| Cc1c(N2CCc3ncc(-c4cc(-c5ccccc5)no4)cc3C2)nn2cnnc2c1C [Compound 132, 5-[6-(7,8-dimethyl-[1,2,4]triazolo[4,3-b]pyridazin-6-yl)-7,8-dihydro-5H-1,6-naphthyridin-3-yl]-3-phenyl-isoxazole] | 81% | 1950 nM |  |
| Cc1cc2nncn2nc1N1CCc2ncc(-c3cc(-c4ccccc4)no3)cc2C1 [Compound 133, 5-[6-(7-methyl-[1,2,4]triazolo[4,3-b]pyridazin-6-yl)-7,8-dihydro-5H-1,6-naphthyridin-3-yl]-3-phenyl-isoxazole] | 68% | 1340 nM |  |
| Cc1cnn(C)c1-c1cnc2c(c1)CN(c1nn3cnnc3c(C)c1C)CC2 [Compound 134, 3-(2,4-dimethylpyrazol-3-yl)-6-(7,8-dimethyl-[1,2,4]triazolo[4,3-b]pyridazin-6-yl)-7,8-dihydro-5H-1,6-naphthyridine] | 88% | 299 nM |  |
| Cc1cc2nncn2nc1N1CCc2ncc(-c3c(C)cnn3C)cc2C1 [Compound 135, 3-(2,4-dimethylpyrazol-3-yl)-6-(7-methyl-[1,2,4]triazolo[4,3-b]pyridazin-6-yl)-7,8-dihydro-5H-1,6-naphthyridine] | 81% | 772 nM |  |
| Cc1cc2nccn2nc1N1CCc2ncc(-c3c(C)cnn3C)cc2C1 [Compound 136, 3-(2,4-dimethylpyrazol-3-yl)-6-(7-methylimidazo[1,2-b]pyridazin-6-yl)-7,8-dihydro-5H-1,6-naphthyridine] | 66% | 1200 nM |  |
| Cc1c(N2CCc3ncc(-c4ccnn4C)cc3C2)nn2cnnc2c1C [Compound 137, 6-(7,8-dimethyl-[1,2,4]triazolo[4,3-b]pyridazin-6-yl)-3-(2-methylpyrazol-3-yl)-7,8-dihydro-5H-1,6-naphthyridine] | 99% | 295 nM |  |
| Cc1cc2nncn2nc1N1CCc2ncccc2C1 [Compound 151, 6-(7-methyl-[1,2,4]triazolo[4,3-b]pyridazin-6-yl)-7,8-dihydro-5H-1,6-naphthyridine] |  |  | 93% |

Further lines, with some results ahead:

| Emax at 30 µM | EC50 | Structure (SMILES) | Emax |
| --- | --- | --- | --- |
| 105% | 574 nM | Cc1cc2nncn2nc1N1CCc2ncc(-c3ccnn3C)cc2C1 [Compound 138, 3-(2-methylpyrazol-3-yl)-6-(7-methyl-[1,2,4]triazolo[4,3-b]pyridazin-6-yl)-7,8-dihydro-5H-1,6-naphthyridine] |  |
| 83% | 433 nM | Cc1cc2nccn2nc1N1CCc2ncc(-c3ccnn3C)cc2C1 [Compound 139, 6-(7-methylimidazo[1,2-b]pyridazin-6-yl)-3-(2-methylpyrazol-3-yl)-7,8-dihydro-5H-1,6-naphthyridine] |  |
| 100% | 373 nM | Cc1cc2nncn2nc1N1CCc2ncc(-c3cnn(C)c3)cc2C1 [Compound 140, 3-(1-methylpyrazol-4-yl)-6-(7-methyl-[1,2,4]triazolo[4,3-b]pyridazin-6-yl)-7,8-dihydro-5H-1,6-naphthyridine] |  |
| 91% | 583 nM | Cc1cc2nccn2nc1N1CCc2ncc(-c3cnn(C)c3)cc2C1 [Compound 141, 6-(7-methylimidazo[1,2-b]pyridazin-6-yl)-3-(1-methylpyrazol-4-yl)-7,8-dihydro-5H-1,6-naphthyridine] |  |
| 93% | 169 nM | Cc1c(N2CCc3ncc(-c4cnn(C5CC5)c4)cc3C2)nn2cnnc2c1C [Compound 142, 3-(1-cyclopropylpyrazol-4-yl)-6-(7,8-dimethyl-[1,2,4]triazolo[4,3-b]pyridazin-6-yl)-7,8-dihydro-5H-1,6-naphthyridine] |  |
| 89% | 138 nM | Cc1cc2nncn2nc1N1CCc2ncc(-c3cnn(C4CC4)c3)cc2C1 [Compound 143, 3-(1-cyclopropylpyrazol-4-yl)-6-(7-methyl-[1,2,4]triazolo[4,3-b]pyridazin-6-yl)-7,8-dihydro-5H-1,6-naphthyridine] |  |
| 44% | 266 nM | Cc1cc2nccn2nc1N1CCc2ncc(-c3cnn(CC(C)C)c3)cc2C1 [Compound 144, 3-(1-isobutylpyrazol-4-yl)-6-(7-methylimidazo[1,2-b]pyridazin-6-yl)-7,8-dihydro-5H-1,6-naphthyridine] |  |
| 74% | 304 nM | Cc1cc2nccn2nc1N1CCc2ncc(-c3cnn(C4CC4)c3)cc2C1 [Compound 145, 3-(1-cyclopropylpyrazol-4-yl)-6-(7-methylimidazo[1,2-b]pyridazin-6-yl)-7,8-dihydro-5H-1,6-naphthyridine] |  |
| 107% | 227 nM | Cc1c(N2CCc3ncc(-c4cnn(CC(C)C)c4)cc3C2)nn2cnnc2c1C [Compound 146, 6-(7,8-dimethyl-[1,2,4]triazolo[4,3-b]pyridazin-6-yl)-3-(1-isobutylpyrazol-4-yl)-7,8-dihydro-5H-1,6-naphthyridine] |  |
| 99% | 477 nM | Cc1cc2nncn2nc1N1CCc2ncc(-c3cnn(CC(C)C)c3)cc2C1 [Compound 147, 3-(1-isobutylpyrazol-4-yl)-6-(7-methyl-[1,2,4]triazolo[4,3-b]pyridazin-6-yl)-7,8-dihydro-5H-1,6-naphthyridine] |  |
| 106% | 296 nM | Cc1c(N2CCc3ncc(-c4cnn(C5CCNCC5)c4)cc3C2)nn2cnnc2c1C [Compound 148, 6-(7,8-dimethyl-[1,2,4]triazolo[4,3-b]pyridazin-6-yl)-3-[1-(4-piperidyl)pyrazol-4-yl]-7,8-dihydro-5H-1,6-naphthyridine] |  |
| 107% | 316 nM | Cc1cc2nncn2nc1N1CCc2ncc(-c3cnn(C4CCNCC4)c3)cc2C1 [Compound 149, 6-(7-methyl-[1,2,4]triazolo[4,3-b]pyridazin-6-yl)-3-[1-(4-piperidyl)pyrazol-4-yl]-7,8-dihydro-5H-1,6-naphthyridine] |  |
| 87% | 568 nM | Cc1cc2nccn2nc1N1CCc2ncc(-c3cnn(C4CCNCC4)c3)cc2C1 [Compound 150, 6-(7-methylimidazo[1,2-b]pyridazin-6-yl)-3-[1-(4-piperidyl)pyrazol-4-yl]-7,8-dihydro-5H-1,6-naphthyridine] |  |
